Data from patent US10040838B2, “CRHR2 peptide agonists and uses thereof” (JANSSEN PHARMACEUTICA NV, priority 2008, dated 2018).
No end group written: not given here.

Experiments:
human CRHR2 [1] = target: T1, human CRHR2 (Homo sapiens, UniProt Q13324); test: cAMP assay in h-CRHR2 transfected SK-N-MC cells; assay type: cell-based; conditions: for Log DR: Table 13, h-SCP control pA50 minus test compound pA50 within same assay batch; for nH: Table 12, Hill slope
T1 construct: expressed in transfected cells
T1 sequence (Q13324 1-411): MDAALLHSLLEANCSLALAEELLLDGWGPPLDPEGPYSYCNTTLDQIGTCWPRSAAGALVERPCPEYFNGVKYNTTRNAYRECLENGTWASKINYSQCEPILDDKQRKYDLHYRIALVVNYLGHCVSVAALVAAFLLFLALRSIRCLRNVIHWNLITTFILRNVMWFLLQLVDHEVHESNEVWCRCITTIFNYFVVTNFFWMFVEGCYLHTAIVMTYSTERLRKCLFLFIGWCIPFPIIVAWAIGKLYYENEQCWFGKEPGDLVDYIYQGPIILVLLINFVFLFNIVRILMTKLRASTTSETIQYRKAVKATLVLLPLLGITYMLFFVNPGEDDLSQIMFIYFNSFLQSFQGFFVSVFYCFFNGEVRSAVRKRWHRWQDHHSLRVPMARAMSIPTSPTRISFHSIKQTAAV
Summary of the method: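 Intracellular cAMP was read by competition with [125I]-cAMP for an anti-cAMP antibody after HCl lysis of human CRHR2-transfected SK-N-MC cells. Cells had been exposed to peptide, 1 pM to 10 μM, for 60 min at 37 °C in IBMX (10 μM) buffer. A50 and pA50 came from Hill fits; Log DR was computed against h-SCP within each batch.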

human CRHR2 [2] = target: T1, human CRHR2; test: Radioligand binding, membranes of SK-N-MC cells transfected with human CRHR2, [125I]-anti-sauvagine-30
Protocol: The binding profile of h-SCP (SEQ ID NO:1) at CRHR2 was determined in radioligand binding studies in a membrane preparation of SK-N-MC cells stably transfected with human CRHR2 using [^125I]-anti-sauvagine-30 as the radiolabel. […] The solution was then homogenized with a Polytron tissue grinder at a setting of 10 and 7×3 s (Brinkmann Instruments, Westbury, N.Y.). The homogenate was centrifuged at 4° Celsius at 800×g for 5 min with the pellet being discarded. The supernatant was re-centrifuged at 26,892×g for 25 min at 4° Celsius with the final pellet being re-suspended in assay buffer. All binding assays were conducted in 96-well Multiscreen GF/B filter plates (Millipore, Billericay, Mass., U.S.A.) that were pre-soaked in assay buffer with 0.3% PEI for 1 hour. […] The bound radioactivity was separated by filtration using a Multiscreen Resist manifold (Millipore Corp., Billerica, Mass., U.S.A). The filters were washed three times with ice-cold PBS at pH 7.5 and radioactivity retained on the filters was quantified by its liquid scintillation measured by a TopCount counter (Packard BioScience, Boston, Mass., U.S.A). All experiments were performed in triplicate. Data from individual competition curves were expressed as the percentage of specific [^125I]-anti-sauvagine-30 or)[^125I]-([…])-sauvagine binding (B) within each experiment.

CRHR1 = target: T2, CRHR1 (Homo sapiens, UniProt P34998); test: Radioligand binding CRHR1 assay, [125I]-(Tyr0)-sauvagine; design: expressed in transfected cells; host or cells: cell membranes
T2 sequence (P34998 24-415): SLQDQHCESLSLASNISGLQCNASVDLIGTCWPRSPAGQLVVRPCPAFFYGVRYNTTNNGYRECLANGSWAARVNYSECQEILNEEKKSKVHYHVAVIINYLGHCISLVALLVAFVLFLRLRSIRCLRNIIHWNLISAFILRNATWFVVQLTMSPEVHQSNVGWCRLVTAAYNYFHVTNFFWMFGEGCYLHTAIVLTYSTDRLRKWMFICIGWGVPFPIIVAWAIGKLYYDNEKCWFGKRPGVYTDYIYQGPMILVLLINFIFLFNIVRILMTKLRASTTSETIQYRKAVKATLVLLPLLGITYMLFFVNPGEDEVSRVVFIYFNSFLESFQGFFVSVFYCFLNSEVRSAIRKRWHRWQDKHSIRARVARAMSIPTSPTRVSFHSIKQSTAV
Protocol: The solution was then homogenized with a Polytron tissue grinder at a setting of 10 and 7×3 s (Brinkmann Instruments, Westbury, N.Y.). The homogenate was centrifuged at 4° Celsius at 800×g for 5 min with the pellet being discarded. […] All binding assays were conducted in 96-well Multiscreen GF/B filter plates (Millipore, Billericay, Mass., U.S.A.) that were pre-soaked in assay buffer with 0.3% PEI for 1 hour. […] The bound radioactivity was separated by filtration using a Multiscreen Resist manifold (Millipore Corp., Billerica, Mass., U.S.A). The filters were washed three times with ice-cold PBS at pH 7.5 and radioactivity retained on the filters was quantified by its liquid scintillation measured by a TopCount counter (Packard BioScience, Boston, Mass., U.S.A). All experiments were performed in triplicate.

[3] = Table 15, slope of competition curve

Molecule	Log DR (human CRHR2 [1])	also measured
CC[C@H](C)[C@H](NC(=O)[C@@H](NC(=O)[C@H](CC(=O)O)NC(=O)[C@H](CC(C)C)NC(=O)[C@H](CC(C)C)NC(=O)[C@H](CC(C)C)NC(=O)[C@H](CCCNC(=N)N)NC(=O)[C@H](CC(N)=O)NC(=O)[C@H](CC(N)=O)NC(=O)[C@H](C)NC(=O)[C@H](C)NC(=O)[C@H](CCC(N)=O)NC(=O)[C@H](CCC(N)=O)NC(=O)[C@H](CCCCN)NC(=O)[C@H](CCC(=O)O)NC(=O)[C@H](CCCCN)NC(=O)[C@H](CCC(=O)O)NC(=O)[C@H](CCC(N)=O)NC(=O)[C@H](CCCCN)NC(=O)[C@H](CCC(=O)O)NC(=O)[C@@H](NC(=O)[C@H](CCC(=O)O)NC(=O)[C@@H](NC(=O)[C@H](CCSC)NC(=O)[C@H](CCCCN)NC(=O)[C@H](CCCNC(=N)N)NC(=O)[C@H](CC(C)C)NC(=O)[C@H](CC(C)C)NC(=O)[C@H](Cc1c[nH]cn1)NC(=O)[C@H](N)Cc1ccccc1)[C@@H](C)CC)[C@@H](C)CC)[C@@H](C)O)C(N)=O [SEQ ID NO: 118, FHLLRKMIEIEKQEKEKQQAANNRLLLDTI-NH2]		Kb (human CRHR2 [1]): 15.1 nM; Ki (human CRHR2 [2]): 16.6 nM; CRHR2 nH (human CRHR2 [2]; [3]): 1.15 ± 0.12; Ki (CRHR1): 1550 nM; CRHR1 nH (CRHR1; [3]): 1.00 ± 0.49
TKFTLSLDVPTNIMNLLFNIAKAKNLRAQAAANAHLMACI-NH2 [SEQ ID NO: 40, TKFTLSLDVPTNIMNLLFNIAKAKNLRAQAAANAHLMACI-NH2]	0.55	
TKFTLSLDVPTNIMNLLFNIAKAKNLRAQAAANAHLMAQC-NH2 [SEQ ID NO: 41, TKFTLSLDVPTNIMNLLFNIAKAKNLRAQAAANAHLMAQC-NH2]	2.07	
TKFTLSLDVPTNIMNLLFNIAKAKNLRAQAAANAHLMAQI-OH [SEQ ID NO: 113, TKFTLSLDVPTNIMNLLFNIAKAKNLRAQAAANAHLMAQI, reference compound]		nH (human CRHR2 [1]): 1.07; fold less potent than the amidated parent peptide (human CRHR2 [1]; versus h-SCP (SEQ ID NO:1)): approximately 200 fold
TKFTLSLDVPTNIMNLLFNIAKAKNLRAQAAANAHLMCQI-NH2 [SEQ ID NO: 39, TKFTLSLDVPTNIMNLLFNIAKAKNLRAQAAANAHLMCQI-NH2]	0.41	
TKFTLSLDVPTNIMNLLFNIAKAKNLRAQAAANCHLMAQI-NH2 [SEQ ID NO: 35, TKFTLSLDVPTNIMNLLFNIAKAKNLRAQAAANCHLMAQI-NH2]	0.70	
TKFTLSLDVPTNIMNLLFNIAKAKNLRAQAACNAHLMAQI-NH2 [SEQ ID NO: 33, TKFTLSLDVPTNIMNLLFNIAKAKNLRAQAACNAHLMAQI-NH2]	0.45	
TKFTLSLDVPTNIMNLLFNIAKAKNLRAQACANAHLMAQI-NH2 [SEQ ID NO: 32, TKFTLSLDVPTNIMNLLFNIAKAKNLRAQACANAHLMAQI-NH2]	0.11	
TKFTLSLDVPTNIMNLLFNIAKAKNLRAQCAANAHLMAQI-NH2 [SEQ ID NO: 31, TKFTLSLDVPTNIMNLLFNIAKAKNLRAQCAANAHLMAQI-NH2]	1.61	
TKFTLSLDVPTNIMNLLFNIAKAKNLRCQAAANAHLMAQI-NH2 [SEQ ID NO: 29, TKFTLSLDVPTNIMNLLFNIAKAKNLRCQAAANAHLMAQI-NH2]	0.00	
TKFTLSLDVPTNIMNLLFNIAKCKNLRAQAAANAHLMAQI-NH2 [SEQ ID NO: 24, TKFTLSLDVPTNIMNLLFNIAKCKNLRAQAAANAHLMAQI-NH2]	0.74	
TKFTLSLDVPTNIMNLLFNICKAKNLRAQAAANAHLMAQI-NH2 [SEQ ID NO: 22, TKFTLSLDVPTNIMNLLFNICKAKNLRAQAAANAHLMAQI-NH2]	0.52	
TLSLDVPTNIMNLLFNIAKAKNLRAQAAANAHLMAQI-NH2 [SEQ ID NO: 108, TLSLDVPTNIMNLLFNIAKAKNLRAQAAANAHLMAQI-NH2]		nH (human CRHR2 [1]): 0.82
